Assay results from PubChem BioAssay (NCI).
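Protocol summary: plate cells (96-well), add compound at 5 concentrations, incubate 48 h, interpolate endpoints linearly. GI50 = concentration required for 50% inhibition of growth. TGI: total growth inhibition.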

Tests used:
Assay in all cases: NCI anticancer screen, dose series, 48 h
786-0 renal = system: 786-0 renal
A498 renal = system: A498 renal
A549 NSCLC = system: A549 NSCLC
ACHN renal = system: ACHN renal
BT-549 breast = system: BT-549 breast
CAKI-1 renal = system: CAKI-1 renal
CCRF-CEM leukemia = system: CCRF-CEM leukemia
COLO 205 colon = system: COLO 205 colon
DU-145 prostate = system: DU-145 prostate
EKVX NSCLC = system: EKVX NSCLC
HCC-2998 colon = system: HCC-2998 colon
HCT-116 colon = system: HCT-116 colon
HCT-15 colon = system: HCT-15 colon
HL-60(TB) leukemia = system: HL-60(TB) leukemia
HOP-62 NSCLC = system: HOP-62 NSCLC
HOP-92 NSCLC = system: HOP-92 NSCLC
HS 578T breast = system: HS 578T breast
HT29 colon = system: HT29 colon
IGROV1 ovarian = system: IGROV1 ovarian
K-562 leukemia = system: K-562 leukemia
KM12 colon = system: KM12 colon
LOX IMVI melanoma = system: LOX IMVI melanoma
M14 melanoma = system: M14 melanoma
MALME-3M melanoma = system: MALME-3M melanoma
MCF7 breast = system: MCF7 breast
MDA-MB-231 breast = system: MDA-MB-231 breast
MDA-MB-435 = system: MDA-MB-435
MDA-MB-468 breast = system: MDA-MB-468 breast
MOLT-4 leukemia = system: MOLT-4 leukemia
NCI-H226 lung = system: NCI-H226 lung
NCI-H23 lung = system: NCI-H23 lung
NCI-H460 lung = system: NCI-H460 lung
NCI-H522 lung = system: NCI-H522 lung
NCI/ADR-RES ovarian = system: NCI/ADR-RES ovarian
OVCAR-3 ovarian = system: OVCAR-3 ovarian
OVCAR-4 ovarian = system: OVCAR-4 ovarian
OVCAR-5 ovarian = system: OVCAR-5 ovarian
OVCAR-8 ovarian = system: OVCAR-8 ovarian
PC-3 prostate = system: PC-3 prostate
RPMI-8226 leukemia = system: RPMI-8226 leukemia
RXF 393 renal = system: RXF 393 renal
SF-268 CNS = system: SF-268 CNS
SF-295 CNS = system: SF-295 CNS
SF-539 CNS = system: SF-539 CNS
SK-MEL-2 melanoma = system: SK-MEL-2 melanoma
SK-MEL-28 melanoma = system: SK-MEL-28 melanoma
SK-MEL-5 melanoma = system: SK-MEL-5 melanoma
SK-OV-3 ovarian = system: SK-OV-3 ovarian
SN12C renal = system: SN12C renal
SNB-19 CNS = system: SNB-19 CNS
SNB-75 CNS = system: SNB-75 CNS
SR leukemia = system: SR leukemia
SW-620 colon = system: SW-620 colon
T-47D breast = system: T-47D breast
TK-10 renal = system: TK-10 renal
U251 CNS = system: U251 CNS
UACC-257 melanoma = system: UACC-257 melanoma
UACC-62 melanoma = system: UACC-62 melanoma
UO-31 renal = system: UO-31 renal

C=C1CCC2C3(C)COC(c4ccccc4F)OC3CCC2(C)C1CC(O)C1=CCOC1=O (stereo not drawn)
GI50 (786-0 renal): 16.7 µM | TGI (786-0 renal): 32.8 µM | GI50 (A498 renal): 23.5 µM | TGI (A498 renal): 77.2 µM | GI50 (A549 NSCLC): 24.4 µM | TGI (A549 NSCLC): > 100 µM | GI50 (ACHN renal): 13.4 µM | TGI (ACHN renal): 26.2 µM | GI50 (BT-549 breast): 5.9 µM | TGI (BT-549 breast): 22 µM | GI50 (CAKI-1 renal): 25 µM | TGI (CAKI-1 renal): > 100 µM | GI50 (CCRF-CEM leukemia): 3.08 µM | TGI (CCRF-CEM leukemia): > 100 µM | GI50 (COLO 205 colon): 19.3 µM | TGI (COLO 205 colon): 55.9 µM | GI50 (DU-145 prostate): 28.9 µM | TGI (DU-145 prostate): > 100 µM | GI50 (EKVX NSCLC): 87.7 µM | TGI (EKVX NSCLC): > 100 µM | GI50 (HCC-2998 colon): 25.3 µM | TGI (HCC-2998 colon): > 100 µM | GI50 (HCT-116 colon): 4.3 µM | TGI (HCT-116 colon): 17.2 µM | GI50 (HCT-15 colon): 9.51 µM | TGI (HCT-15 colon): 33.5 µM | GI50 (HL-60(TB) leukemia): 5.66 µM | TGI (HL-60(TB) leukemia): > 100 µM | GI50 (HOP-62 NSCLC): 23 µM | TGI (HOP-62 NSCLC): 42.4 µM | GI50 (HOP-92 NSCLC): 18.1 µM | TGI (HOP-92 NSCLC): 45.4 µM | GI50 (HS 578T breast): 28.1 µM | TGI (HS 578T breast): > 100 µM | GI50 (HT29 colon): 13.3 µM | TGI (HT29 colon): 52.6 µM | GI50 (IGROV1 ovarian): 24.2 µM | TGI (IGROV1 ovarian): 69.1 µM | GI50 (K-562 leukemia): 5.7 µM | TGI (K-562 leukemia): > 100 µM | GI50 (KM12 colon): 17.7 µM | TGI (KM12 colon): > 100 µM | GI50 (LOX IMVI melanoma): 11.1 µM | TGI (LOX IMVI melanoma): 23.1 µM | GI50 (M14 melanoma): 30 µM | TGI (M14 melanoma): > 100 µM | GI50 (MALME-3M melanoma): 22.5 µM | TGI (MALME-3M melanoma): 68.4 µM | GI50 (MCF7 breast): 3.48 µM | TGI (MCF7 breast): 20.2 µM | GI50 (MDA-MB-231 breast): 16.9 µM | TGI (MDA-MB-231 breast): 35.6 µM | GI50 (MDA-MB-435): 12.6 µM | TGI (MDA-MB-435): 46.9 µM | GI50 (MDA-MB-468 breast): 4.71 µM | TGI (MDA-MB-468 breast): 19.1 µM | GI50 (MOLT-4 leukemia): 40.8 µM | TGI (MOLT-4 leukemia): > 100 µM | GI50 (NCI-H226 lung): 5.74 µM | TGI (NCI-H226 lung): 22.7 µM | GI50 (NCI-H23 lung): 23.6 µM | TGI (NCI-H23 lung): 73.9 µM | GI50 (NCI-H460 lung): 25.4 µM | TGI (NCI-H460 lung): > 100 µM | GI50 (NCI-H522 lung): 6 µM | TGI (NCI-H522 lung): 21.4 µM | GI50 (NCI/ADR-RES ovarian): 8.93 µM | TGI (NCI/ADR-RES ovarian): 25.3 µM | GI50 (OVCAR-3 ovarian): 9.68 µM | TGI (OVCAR-3 ovarian): 26.6 µM | GI50 (OVCAR-4 ovarian): 13.8 µM | TGI (OVCAR-4 ovarian): 53.9 µM | GI50 (OVCAR-5 ovarian): 16.3 µM | TGI (OVCAR-5 ovarian): 50.8 µM | GI50 (OVCAR-8 ovarian): 4.86 µM | TGI (OVCAR-8 ovarian): 19.2 µM | GI50 (PC-3 prostate): 18.2 µM | TGI (PC-3 prostate): > 100 µM | GI50 (RPMI-8226 leukemia): 6.73 µM | TGI (RPMI-8226 leukemia): > 100 µM | GI50 (RXF 393 renal): 14.1 µM | TGI (RXF 393 renal): 30.9 µM | GI50 (SF-268 CNS): 28.4 µM | TGI (SF-268 CNS): > 100 µM | GI50 (SF-295 CNS): 15.9 µM | TGI (SF-295 CNS): 44.9 µM | GI50 (SF-539 CNS): 14.9 µM | TGI (SF-539 CNS): 28.3 µM | GI50 (SK-MEL-2 melanoma): 14.6 µM | TGI (SK-MEL-2 melanoma): 29.1 µM | GI50 (SK-MEL-28 melanoma): 26.4 µM | TGI (SK-MEL-28 melanoma): > 100 µM | GI50 (SK-MEL-5 melanoma): 17.1 µM | TGI (SK-MEL-5 melanoma): 39.4 µM | GI50 (SK-OV-3 ovarian): 37.1 µM | TGI (SK-OV-3 ovarian): > 100 µM | GI50 (SN12C renal): 6.14 µM | TGI (SN12C renal): 92.5 µM | GI50 (SNB-19 CNS): 33.1 µM | TGI (SNB-19 CNS): > 100 µM | GI50 (SNB-75 CNS): 6.89 µM | TGI (SNB-75 CNS): 26.1 µM | GI50 (SR leukemia): 57.1 µM | TGI (SR leukemia): > 100 µM | GI50 (SW-620 colon): 2.1 µM | TGI (SW-620 colon): 11.4 µM | GI50 (T-47D breast): 10.7 µM | TGI (T-47D breast): > 100 µM | GI50 (TK-10 renal): 34.6 µM | TGI (TK-10 renal): > 100 µM | GI50 (U251 CNS): 11.9 µM | TGI (U251 CNS): 24.6 µM | GI50 (UACC-257 melanoma): 20 µM | TGI (UACC-257 melanoma): > 100 µM | GI50 (UACC-62 melanoma): 15.9 µM | TGI (UACC-62 melanoma): 46 µM | GI50 (UO-31 renal): 13.4 µM | TGI (UO-31 renal): 54.1 µM
